# Measured values as given in patent US10206394B2, “Herbicidal compounds” (Syngenta Participations AG, priority 2014, dated 2019).
# Like-named read-outs stand apart in the source and are kept apart here.
# Experiments:
# Test in all cases: Glasshouse assay for herbicidal activity (pre- and post-emergence), percentage phytotoxicity
# Assay type in all cases: in vivo
# [1] = system: Echinochloa crus-galli (ECHCG); conditions: Echinochloa crus-galli
# Procedure: (§1) Test—Glasshouse Assay for Herbicidal Activity
# (§2) Seeds of a variety of monocotyledonous and dicotyledonous test plants are sown in standard soil in pots. The plants are cultivated for one day (for pre-emergence (PRE)) or for about 12 days (for post-emergence (POST)) under controlled conditions in a glasshouse (warm climate species at 24/18° C., cool climate species at 20/16° C., both at day/night; 16 hours light; 65% humidity).
# (§3) The test plants are then grown on, in a glasshouse (greenhouse) under controlled conditions (warm climate species at 24/18° C., cool climate species at 20/16° C., both at day/night; 16 hours light; 65% humidity) and are watered twice daily. 15 days after application of the test herbicide (15 DAA) (for post-emergence), and 20 days after application of the test herbicide (20 DAA) (for pre-emergence), the test plants are evaluated visually, and an assessed percentage phytotoxicity score is given for each herbicidal application on each plant species (with 100%=total damage to plant; 0%=no damage to plant).
# (§4) The plant species tested are as follows: Alopecurus myosuroides (ALOMY), Avena fatua (AVEFA), Lolium perenne (LOLPE), Echinochloa crus-galli (ECHCG).
# Avena fatua (AVEFA) = conditions: Avena fatua
# Procedure: as §1, §2, §3, §4
# [2] = system: Alopecurus myosuroides (ALOMY); conditions: Alopecurus myosuroides
# Procedure: as §1, §2, §3, §4
# Lolium perenne (LOLPE) = conditions: Lolium perenne
# Procedure: as §1, §2, §3, §4
# [3] = post-emergence, 360 h, Rate 250 g/ha, post-emergence, assessed visually 15 DAA, 100%=total damage, 0%=no damage, read-out: Post-emergence herbicidal activity (percentage phytotoxicity) ECHCG POST
# [4] = pre-emergence, 480 h, Rate 250 g/ha, pre-emergence, assessed visually 20 DAA, 100%=total damage, 0%=no damage, read-out: Pre-emergence herbicidal activity (percentage phytotoxicity) ECHCG PRE
# [5] = post-emergence, 360 h, Rate 250 g/ha, post-emergence, assessed visually 15 DAA, 100%=total damage, 0%=no damage, read-out: Post-emergence herbicidal activity (percentage phytotoxicity) AVEFA POST
# [6] = pre-emergence, 480 h, Rate 250 g/ha, pre-emergence, assessed visually 20 DAA, 100%=total damage, 0%=no damage, read-out: Pre-emergence herbicidal activity (percentage phytotoxicity) AVEFA PRE
# [7] = post-emergence, 360 h, Rate 250 g/ha, post-emergence, assessed visually 15 DAA, 100%=total damage, 0%=no damage, read-out: Post-emergence herbicidal activity (percentage phytotoxicity) ALOMY POST
# [8] = pre-emergence, 480 h, Rate 250 g/ha, pre-emergence, assessed visually 20 DAA, 100%=total damage, 0%=no damage, read-out: Pre-emergence herbicidal activity (percentage phytotoxicity) ALOMY PRE
# [9] = post-emergence, 360 h, Rate 250 g/ha, post-emergence, assessed visually 15 DAA, 100%=total damage, 0%=no damage, read-out: Post-emergence herbicidal activity (percentage phytotoxicity) LOLPE POST
# [10] = pre-emergence, 480 h, Rate 250 g/ha, pre-emergence, assessed visually 20 DAA, 100%=total damage, 0%=no damage, read-out: Pre-emergence herbicidal activity (percentage phytotoxicity) LOLPE PRE
# [11] = post-emergence, 360 h, Rate 250 g/ha, post-emergence, visual assessment 15 DAA, 100%=total damage, 0%=no damage, read-out: Post-emergence herbicidal activity (percentage phytotoxicity) ECHCG POST
# [12] = pre-emergence, 480 h, Rate 250 g/ha, pre-emergence, visual assessment 20 DAA, 100%=total damage, 0%=no damage, read-out: Pre-emergence herbicidal activity (percentage phytotoxicity) ECHCG PRE
# [13] = post-emergence, 360 h, Rate 250 g/ha, post-emergence, visual assessment 15 DAA, 100%=total damage, 0%=no damage, read-out: Post-emergence herbicidal activity (percentage phytotoxicity) AVEFA POST
# [14] = pre-emergence, 480 h, Rate 250 g/ha, pre-emergence, visual assessment 20 DAA, 100%=total damage, 0%=no damage, read-out: Pre-emergence herbicidal activity (percentage phytotoxicity) AVEFA PRE
# [15] = post-emergence, 360 h, Rate 250 g/ha, post-emergence, visual assessment 15 DAA, 100%=total damage, 0%=no damage, read-out: Post-emergence herbicidal activity (percentage phytotoxicity) ALOMY POST
# [16] = pre-emergence, 480 h, Rate 250 g/ha, pre-emergence, visual assessment 20 DAA, 100%=total damage, 0%=no damage, read-out: Pre-emergence herbicidal activity (percentage phytotoxicity) ALOMY PRE
# [17] = post-emergence, 360 h, Rate 250 g/ha, post-emergence, visual assessment 15 DAA, 100%=total damage, 0%=no damage, read-out: Post-emergence herbicidal activity (percentage phytotoxicity) LOLPE POST
# [18] = pre-emergence, 480 h, Rate 250 g/ha, pre-emergence, visual assessment 20 DAA, 100%=total damage, 0%=no damage, read-out: Pre-emergence herbicidal activity (percentage phytotoxicity) LOLPE PRE
compound,measurement,setting,value
Cc1cc(C)c(C2C(=O)CC(CC(=O)NCc3cc(C)nn3C)C2=O)c(C)c1 (stereo not drawn) [Compound A84],pest or weed control at 250 g/ha,[1]; [3],70%
same,pest or weed control at 250 g/ha,[1]; [4],0%
same,pest or weed control at 250 g/ha,Avena fatua (AVEFA); [5],20%
same,pest or weed control at 250 g/ha,Avena fatua (AVEFA); [6],0%
same,pest or weed control at 250 g/ha,[2]; [7],60%
same,pest or weed control at 250 g/ha,[2]; [8],40%
same,pest or weed control at 250 g/ha,Lolium perenne (LOLPE); [9],20%
same,pest or weed control at 250 g/ha,Lolium perenne (LOLPE); [10],10%
Cc1cc(-c2ncc(Cl)cn2)cc(C)c1C1C(=O)CC(CC(=O)NCc2cccc(Cl)c2)C1=O (stereo not drawn) [Compound B354],pest or weed control at 250 g/ha,[1]; [11],100%
same,pest or weed control at 250 g/ha,[1]; [12],90%
same,pest or weed control at 250 g/ha,Avena fatua (AVEFA); [13],100%
same,pest or weed control at 250 g/ha,Avena fatua (AVEFA); [14],80%
same,pest or weed control at 250 g/ha,[2]; [15],90%
same,pest or weed control at 250 g/ha,[2]; [16],70%
same,pest or weed control at 250 g/ha,Lolium perenne (LOLPE); [17],90%
same,pest or weed control at 250 g/ha,Lolium perenne (LOLPE); [18],80%
CC#Cc1cc(C)c(C2C(=O)CC(CC(=O)NCCCC)C2=O)c(CC)c1 (stereo not drawn) [Compound A51],pest or weed control at 250 g/ha,[1]; [3],100%
same,pest or weed control at 250 g/ha,[1]; [4],100%
same,pest or weed control at 250 g/ha,Avena fatua (AVEFA); [5],100%
same,pest or weed control at 250 g/ha,Avena fatua (AVEFA); [6],100%
same,pest or weed control at 250 g/ha,[2]; [7],100%
same,pest or weed control at 250 g/ha,[2]; [8],100%
same,pest or weed control at 250 g/ha,Lolium perenne (LOLPE); [9],100%
same,pest or weed control at 250 g/ha,Lolium perenne (LOLPE); [10],100%
Cc1cc(-c2ccc(Cl)cc2)cc(C)c1C1C(=O)CC(CC(=O)NC(C)(C)C#N)C1=O (stereo not drawn) [Compound B378],pest or weed control at 250 g/ha,[1]; [11],100%
same,pest or weed control at 250 g/ha,[1]; [12],90%
same,pest or weed control at 250 g/ha,Avena fatua (AVEFA); [13],100%
same,pest or weed control at 250 g/ha,Avena fatua (AVEFA); [14],90%
same,pest or weed control at 250 g/ha,[2]; [15],80%
same,pest or weed control at 250 g/ha,[2]; [16],70%
same,pest or weed control at 250 g/ha,Lolium perenne (LOLPE); [17],70%
same,pest or weed control at 250 g/ha,Lolium perenne (LOLPE); [18],80%
C/C=C/CNC(=O)CC1CC(=O)C(c2c(C)cc(-c3ncc(F)cc3F)cc2C)C1=O (stereo not drawn) [Compound B291],pest or weed control at 250 g/ha,"[1]; post-emergence, 360 h, POST-emergence, rate 250 g/ha, visual score 15 DAA (100%=total damage, 0%=no damage), read-out: Post-emergence herbicidal activity (percentage phytotoxicity) ECHCG POST",100%
same,pest or weed control at 250 g/ha,"[1]; pre-emergence, 480 h, PRE-emergence, rate 250 g/ha, visual score 20 DAA (100%=total damage, 0%=no damage), read-out: Pre-emergence herbicidal activity (percentage phytotoxicity) ECHCG PRE",100%
same,pest or weed control at 250 g/ha,"Avena fatua (AVEFA); post-emergence, 360 h, POST-emergence, rate 250 g/ha, visual score 15 DAA (100%=total damage, 0%=no damage), read-out: Post-emergence herbicidal activity (percentage phytotoxicity) AVEFA POST",100%
same,pest or weed control at 250 g/ha,"Avena fatua (AVEFA); pre-emergence, 480 h, PRE-emergence, rate 250 g/ha, visual score 20 DAA (100%=total damage, 0%=no damage), read-out: Pre-emergence herbicidal activity (percentage phytotoxicity) AVEFA PRE",90%
same,pest or weed control at 250 g/ha,"[2]; post-emergence, 360 h, POST-emergence, rate 250 g/ha, visual score 15 DAA (100%=total damage, 0%=no damage), read-out: Post-emergence herbicidal activity (percentage phytotoxicity) ALOMY POST",90%
same,pest or weed control at 250 g/ha,"[2]; pre-emergence, 480 h, PRE-emergence, rate 250 g/ha, visual score 20 DAA (100%=total damage, 0%=no damage), read-out: Pre-emergence herbicidal activity (percentage phytotoxicity) ALOMY PRE",100%
same,pest or weed control at 250 g/ha,"Lolium perenne (LOLPE); post-emergence, 360 h, POST-emergence, rate 250 g/ha, visual score 15 DAA (100%=total damage, 0%=no damage), read-out: Post-emergence herbicidal activity (percentage phytotoxicity) LOLPE POST",90%
same,pest or weed control at 250 g/ha,"Lolium perenne (LOLPE); pre-emergence, 480 h, PRE-emergence, rate 250 g/ha, visual score 20 DAA (100%=total damage, 0%=no damage), read-out: Pre-emergence herbicidal activity (percentage phytotoxicity) LOLPE PRE",100%
Cc1cc(-c2ncc(F)cn2)cc(Cl)c1C1C(=O)CC(CC(=O)NC(C)(C)C)C1=O (stereo not drawn) [Compound B405],pest or weed control at 250 g/ha,[1]; [11],100%
same,pest or weed control at 250 g/ha,[1]; [12],100%
same,pest or weed control at 250 g/ha,Avena fatua (AVEFA); [13],100%
same,pest or weed control at 250 g/ha,Avena fatua (AVEFA); [14],90%
same,pest or weed control at 250 g/ha,[2]; [15],100%
same,pest or weed control at 250 g/ha,[2]; [16],90%
same,pest or weed control at 250 g/ha,Lolium perenne (LOLPE); [17],100%
same,pest or weed control at 250 g/ha,Lolium perenne (LOLPE); [18],100%
